Data taken from ChEMBL document CHEMBL3045559, “Natural-product-based chromenes as a novel class of potential termiticides” (2011).

Key:
Assay type in all cases: functional
Coptotermes formosanus [1] = test: Termiticidal activity against Coptotermes formosanus (third-instar worker and soldier) assessed as mortality at 1% wt/wt at 26.6 degC, 100% RH measured after 8 days (Rvb= 1.3 +/- 2.5%)
Coptotermes formosanus [2] = test: Termiticidal activity against Coptotermes formosanus (third-instar worker and soldier) assessed as mortality at 1% wt/wt at 26.6 degC, 100% RH measured after 4 days (Rvb= 0%)
Coptotermes formosanus [3] = test: Termiticidal activity against Coptotermes formosanus (third-instar worker and soldier) assessed as mortality at 1% wt/wt at 26.6 degC, 100% RH measured after 1 day (Rvb= 0%)
Coptotermes formosanus [4] = test: Termiticidal activity against Coptotermes formosanus (third-instar worker and soldier) assessed as mortality at 1% wt/wt at 26.6 degC, 100% RH measured after 21 days (Rvb= 1.3 +/- 2.5%)
Coptotermes formosanus [5] = test: Termiticidal activity against Coptotermes formosanus (third-instar worker and soldier) assessed as mortality at 1% wt/wt at 26.6 degC, 100% RH measured after 18 days (Rvb= 1.3 +/- 2.5%)
Coptotermes formosanus [6] = test: Termiticidal activity against Coptotermes formosanus (third-instar worker and soldier) assessed as mortality at 1% wt/wt at 26.6 degC, 100% RH measured after 15 days (Rvb= 1.3 +/- 2.5 to 5 +/- 4.1%)
Coptotermes formosanus [7] = test: Termiticidal activity against Coptotermes formosanus (third-instar worker and soldier) assessed as mortality at 1% wt/wt at 26.6 degC, 100% RH measured after 11 days (Rvb= 1.3 +/- 2.5%)
Coptotermes formosanus [8] = test: Termiticidal activity against Coptotermes formosanus (third-instar worker and soldier) assessed as mortality at 1% wt/wt at 26.6 degC, 100% RH measured after 3 days (Rvb= 0%)
Coptotermes formosanus [9] = test: Termiticidal activity against Coptotermes formosanus (third-instar worker and soldier) assessed as mortality at 1% wt/wt at 26.6 degC, 100% RH measured after 17 days (Rvb= 5 +/- 4.1%)
Coptotermes formosanus [10] = test: Termiticidal activity against Coptotermes formosanus (third-instar worker and soldier) assessed as mortality at 1% wt/wt at 26.6 degC, 100% RH measured after 21 days (Rvb= 1.3 +/- 2.5 to 5 +/- 4.1%)
Coptotermes formosanus [11] = test: Termiticidal activity against Coptotermes formosanus (third-instar worker and soldier) assessed as mortality at 1% wt/wt at 26.6 degC, 100% RH measured after 9 days (Rvb= 3.8 +/- 4.8%)
Coptotermes formosanus [12] = test: Termiticidal activity against Coptotermes formosanus (third-instar worker and soldier) assessed as mortality at 1% wt/wt at 26.6 degC, 100% RH measured after 7 days (Rvb= 3.8 +/- 4.8%)
Coptotermes formosanus [13] = test: Termiticidal activity against Coptotermes formosanus (third-instar worker and soldier) assessed as mortality at 0.5% wt/wt at 26.6 degC, 100% RH measured after 5 days

**Q.** Which results are given for `CC(C)CC(=O)N(C)CCC1=CC2C=CC(C)(C)OC2C=C1` (configuration not stated)?
**A.** mortality (Coptotermes formosanus [1]): 32.5%; mortality (Coptotermes formosanus [2]): 32.5%; mortality (Coptotermes formosanus [3]): 6.3%; mortality (Coptotermes formosanus [4]): 32.5%; mortality (Coptotermes formosanus [5]): 32.5%; mortality (Coptotermes formosanus [6]): 32.5%; mortality (Coptotermes formosanus [7]): 32.5%

**Q.** With `CC1(C)C=Cc2cc3c(cc2O1)OCO3` [6,6-DIMETHYL-6H-[1,3]DIOXOLO[4,5-G]CHROMENE] as the molecule, how does the mortality (Coptotermes formosanus [3]) read?
**A.** 0%

**Q.** And the mortality (Coptotermes formosanus [8])?
**A.** 2.5%

**Q.** And the mortality (Coptotermes formosanus [9])?
**A.** 82.5%

**Q.** What about the mortality (Coptotermes formosanus [10]) of the same molecule?
**A.** 85%

**Q.** What about the mortality (Coptotermes formosanus [11]) of the same molecule?
**A.** 23.8%

**Q.** And the mortality (Coptotermes formosanus [12])?
**A.** 12.5%

**Q.** What about the mortality (Coptotermes formosanus [6]) of the same molecule?
**A.** 75%

**Q.** Which results are given for `CC(=O)c1ccc2c(c1O)C=CC(C)(C)O2`?
**A.** mortality (Coptotermes formosanus [3]): 0%; mortality (Coptotermes formosanus [13]): 100%; mortality (Coptotermes formosanus [8]): 1.3%; mortality (Coptotermes formosanus [9]): 100%; mortality (Coptotermes formosanus [10]): 100%; mortality (Coptotermes formosanus [11]): 98.8%; mortality (Coptotermes formosanus [12]): 66.3%; mortality (Coptotermes formosanus [6]): 100%

**Q.** Which mortality (Coptotermes formosanus [1]) does the source give for `CC1(C)C=Cc2cc(CCO)ccc2O1` here?
**A.** 33.8%

**Q.** And the mortality (Coptotermes formosanus [2])?
**A.** 10%

**Q.** What about the mortality (Coptotermes formosanus [3]) of the same molecule?
**A.** 0%

**Q.** What about the mortality (Coptotermes formosanus [4]) of the same molecule?
**A.** 73.8%

**Q.** What about the mortality (Coptotermes formosanus [5]) of the same molecule?
**A.** 71.3%

**Q.** And the mortality (Coptotermes formosanus [6])?
**A.** 70%

**Q.** What about the mortality (Coptotermes formosanus [7]) of the same molecule?
**A.** 56.3%

**Q.** Which results are given for `CC1(C)C=Cc2cc(C=O)ccc2O1`?
**A.** mortality (Coptotermes formosanus [1]): 81.3%; mortality (Coptotermes formosanus [2]): 62.5%; mortality (Coptotermes formosanus [3]): 51.3%; mortality (Coptotermes formosanus [4]): 98.8%; mortality (Coptotermes formosanus [5]): 98.8%; mortality (Coptotermes formosanus [6]): 98.8%; mortality (Coptotermes formosanus [7]): 93.8%

**Q.** What does the source list for `COC(=O)Cc1ccc2c(c1)C=CC(C)(C)O2`?
**A.** mortality (Coptotermes formosanus [1]): 92.5%; mortality (Coptotermes formosanus [2]): 82.5%; mortality (Coptotermes formosanus [3]): 12.5%; mortality (Coptotermes formosanus [4]): 100%; mortality (Coptotermes formosanus [5]): 100%; mortality (Coptotermes formosanus [6]): 100%; mortality (Coptotermes formosanus [7]): 100%

**Q.** For `COC(=O)c1ccc(OC)c2c1OC(C)(C)C=C2`, which mortality (Coptotermes formosanus [3]) is on record?
**A.** 0%

**Q.** What about the mortality (Coptotermes formosanus [13]) of the same molecule?
**A.** 100%

**Q.** What about the mortality (Coptotermes formosanus [8]) of the same molecule?
**A.** 2.5%

**Q.** And the mortality (Coptotermes formosanus [9])?
**A.** 100%

**Q.** What about the mortality (Coptotermes formosanus [10]) of the same molecule?
**A.** 100%

**Q.** And the mortality (Coptotermes formosanus [11])?
**A.** 61.3%

**Q.** What about the mortality (Coptotermes formosanus [12]) of the same molecule?
**A.** 30%

**Q.** And the mortality (Coptotermes formosanus [6])?
**A.** 96.3%

**Q.** What does the source list for `COC(=O)c1ccc2c(c1)C=CC(C)(C)O2`?
**A.** mortality (Coptotermes formosanus [1]): 100%; mortality (Coptotermes formosanus [2]): 92.5%; mortality (Coptotermes formosanus [3]): 3.75%; mortality (Coptotermes formosanus [4]): 100%; mortality (Coptotermes formosanus [5]): 100%; mortality (Coptotermes formosanus [6]): 100%; mortality (Coptotermes formosanus [7]): 100%

**Q.** `COC(=O)c1cccc2c1C=CC(C)(C)O2` was tested. Which mortality (Coptotermes formosanus [1]) did it give?
**A.** 97.5%

**Q.** What about the mortality (Coptotermes formosanus [2]) of the same molecule?
**A.** 87.5%

**Q.** What about the mortality (Coptotermes formosanus [3]) of the same molecule?
**A.** 0%

**Q.** And the mortality (Coptotermes formosanus [4])?
**A.** 100%

**Q.** And the mortality (Coptotermes formosanus [5])?
**A.** 100%

**Q.** What about the mortality (Coptotermes formosanus [6]) of the same molecule?
**A.** 100%

**Q.** And the mortality (Coptotermes formosanus [7])?
**A.** 100%

**Q.** With `CC(C)NCCc1ccc2c(c1)C=CC(C)(C)O2.Cl` as the molecule, how does the mortality (Coptotermes formosanus [1]) read?
**A.** 3.8%

**Q.** And the mortality (Coptotermes formosanus [2])?
**A.** 3.8%

**Q.** And the mortality (Coptotermes formosanus [3])?
**A.** 3.75%

**Q.** What about the mortality (Coptotermes formosanus [4]) of the same molecule?
**A.** 15%

**Q.** And the mortality (Coptotermes formosanus [5])?
**A.** 8.8%

**Q.** And the mortality (Coptotermes formosanus [6])?
**A.** 7.5%

**Q.** And the mortality (Coptotermes formosanus [7])?
**A.** 5%

**Q.** With `CC1(C)C=Cc2c(CO)cccc2O1` as the molecule, how does the mortality (Coptotermes formosanus [1]) read?
**A.** 100%

**Q.** What about the mortality (Coptotermes formosanus [2]) of the same molecule?
**A.** 100%

**Q.** And the mortality (Coptotermes formosanus [3])?
**A.** 41.3%

**Q.** What about the mortality (Coptotermes formosanus [13]) of the same molecule?
**A.** 100%

**Q.** What about the mortality (Coptotermes formosanus [4]) of the same molecule?
**A.** 100%

**Q.** And the mortality (Coptotermes formosanus [5])?
**A.** 100%

**Q.** And the mortality (Coptotermes formosanus [6])?
**A.** 100%

**Q.** And the mortality (Coptotermes formosanus [7])?
**A.** 100%

**Q.** Which mortality (Coptotermes formosanus [1]) does the source give for `CC(C)NCc1ccc2c(c1)C=CC(C)(C)O2.Cl` here?
**A.** 55%

**Q.** And the mortality (Coptotermes formosanus [2])?
**A.** 20%

**Q.** What about the mortality (Coptotermes formosanus [3]) of the same molecule?
**A.** 8.8%

**Q.** And the mortality (Coptotermes formosanus [4])?
**A.** 88.8%

**Q.** What about the mortality (Coptotermes formosanus [5]) of the same molecule?
**A.** 88.8%

**Q.** And the mortality (Coptotermes formosanus [6])?
**A.** 80%

**Q.** What about the mortality (Coptotermes formosanus [7]) of the same molecule?
**A.** 72.5%

**Q.** Which results are given for `COC(=O)c1ccc2c(c1)OC(C)(C)C=C2`?
**A.** mortality (Coptotermes formosanus [1]): 100%; mortality (Coptotermes formosanus [2]): 100%; mortality (Coptotermes formosanus [3]): 32.5%; mortality (Coptotermes formosanus [4]): 100%; mortality (Coptotermes formosanus [5]): 100%; mortality (Coptotermes formosanus [6]): 100%; mortality (Coptotermes formosanus [7]): 100%

**Q.** How did the mortality (Coptotermes formosanus [1]) turn out when `CC1(C)C=Cc2cc(C(=O)O)ccc2O1` was run?
**A.** 0%

**Q.** And the mortality (Coptotermes formosanus [2])?
**A.** 0%

**Q.** What about the mortality (Coptotermes formosanus [3]) of the same molecule?
**A.** 0%

**Q.** And the mortality (Coptotermes formosanus [4])?
**A.** 2.5%

**Q.** And the mortality (Coptotermes formosanus [5])?
**A.** 1.3%

**Q.** And the mortality (Coptotermes formosanus [6])?
**A.** 1.3%

**Q.** What about the mortality (Coptotermes formosanus [7]) of the same molecule?
**A.** 0%

**Q.** Which results are given for `CC1(C)C=Cc2cc(CO)ccc2O1` [EULATACHROMENE]?
**A.** mortality (Coptotermes formosanus [1]): 92.5%; mortality (Coptotermes formosanus [2]): 40%; mortality (Coptotermes formosanus [3]): 1.3%; mortality (Coptotermes formosanus [4]): 100%; mortality (Coptotermes formosanus [5]): 100%; mortality (Coptotermes formosanus [6]): 100%; mortality (Coptotermes formosanus [7]): 100%

**Q.** Which results are given for `CNCCc1ccc2c(c1)C=CC(C)(C)O2.Cl`?
**A.** mortality (Coptotermes formosanus [1]): 0%; mortality (Coptotermes formosanus [2]): 0%; mortality (Coptotermes formosanus [3]): 0%; mortality (Coptotermes formosanus [4]): 3.8%; mortality (Coptotermes formosanus [5]): 2.5%; mortality (Coptotermes formosanus [6]): 2.5%; mortality (Coptotermes formosanus [7]): 1.3%

**Q.** For `CC1(C)C=Cc2ccc(CO)cc2O1`, which mortality (Coptotermes formosanus [1]) is on record?
**A.** 100%

**Q.** What about the mortality (Coptotermes formosanus [2]) of the same molecule?
**A.** 100%

**Q.** What about the mortality (Coptotermes formosanus [3]) of the same molecule?
**A.** 26.3%

**Q.** And the mortality (Coptotermes formosanus [4])?
**A.** 100%

**Q.** What about the mortality (Coptotermes formosanus [5]) of the same molecule?
**A.** 100%

**Q.** What about the mortality (Coptotermes formosanus [6]) of the same molecule?
**A.** 100%

**Q.** And the mortality (Coptotermes formosanus [7])?
**A.** 100%
